Consider four molecules from article doi:10.1101/2025.11.21.689733v1, “Identification and Characterization of a Small Molecule Ligand for the Huntingtin-HAP40 Complex” (biorxiv, 2025).

Holding throughout (type): binding
Assay [1] has as its target T1, HTTQ23-HAP40 (HTT-HAP40) (Homo sapiens, UniProt P23610+P42858, P42858:INS38QQ).
T1 construct: full-length HTT (3144 aa, polyQ tract Q23) co-complex with HAP40, ~390 kDa; C-terminal Avi-tag biotinylated (BirA) for SPR; Sf9 baculovirus
Kind of assay: SPR, steady state, […] model. The note with it: read-out: apparent KD. In general terms: Surface plasmon resonance follows binding to a sensor surface in real time, without labels.

The next assay concerns the target T2, HTTQ54-HAP40 (Homo sapiens, UniProt P23610+P42858, P42858:INS38QQQQQQQQQQQQQQQQQQQQQQQQQQQQQQQQQ).
T2 construct: gene HTT; full-length HTT with polyQ tract of 54 residues in complex with HAP40; C-terminal Avi-tag biotinylated; Sf9 baculovirus
Kind of assay: SPR. The source says: SPR on HTTQ54-HAP40 | binding affinity was indistinguishable between wild-type (Q23) HTT-HAP40 and its expanded form (Q54)

For assay [2], the target named is T1, HTTQ23-HAP40 (HTT-HAP40). Kind of assay: SPR, […] model.
Assay [3] concerns the target T1, HTTQ23-HAP40 (HTT-HAP40). Nature of the assay: SPR, […] model. The note with it: pH 7.4, 150 mM NaCl, 4% DMSO.

T1 sequence (P42858 with tags, fused parts or gaps INS38QQ): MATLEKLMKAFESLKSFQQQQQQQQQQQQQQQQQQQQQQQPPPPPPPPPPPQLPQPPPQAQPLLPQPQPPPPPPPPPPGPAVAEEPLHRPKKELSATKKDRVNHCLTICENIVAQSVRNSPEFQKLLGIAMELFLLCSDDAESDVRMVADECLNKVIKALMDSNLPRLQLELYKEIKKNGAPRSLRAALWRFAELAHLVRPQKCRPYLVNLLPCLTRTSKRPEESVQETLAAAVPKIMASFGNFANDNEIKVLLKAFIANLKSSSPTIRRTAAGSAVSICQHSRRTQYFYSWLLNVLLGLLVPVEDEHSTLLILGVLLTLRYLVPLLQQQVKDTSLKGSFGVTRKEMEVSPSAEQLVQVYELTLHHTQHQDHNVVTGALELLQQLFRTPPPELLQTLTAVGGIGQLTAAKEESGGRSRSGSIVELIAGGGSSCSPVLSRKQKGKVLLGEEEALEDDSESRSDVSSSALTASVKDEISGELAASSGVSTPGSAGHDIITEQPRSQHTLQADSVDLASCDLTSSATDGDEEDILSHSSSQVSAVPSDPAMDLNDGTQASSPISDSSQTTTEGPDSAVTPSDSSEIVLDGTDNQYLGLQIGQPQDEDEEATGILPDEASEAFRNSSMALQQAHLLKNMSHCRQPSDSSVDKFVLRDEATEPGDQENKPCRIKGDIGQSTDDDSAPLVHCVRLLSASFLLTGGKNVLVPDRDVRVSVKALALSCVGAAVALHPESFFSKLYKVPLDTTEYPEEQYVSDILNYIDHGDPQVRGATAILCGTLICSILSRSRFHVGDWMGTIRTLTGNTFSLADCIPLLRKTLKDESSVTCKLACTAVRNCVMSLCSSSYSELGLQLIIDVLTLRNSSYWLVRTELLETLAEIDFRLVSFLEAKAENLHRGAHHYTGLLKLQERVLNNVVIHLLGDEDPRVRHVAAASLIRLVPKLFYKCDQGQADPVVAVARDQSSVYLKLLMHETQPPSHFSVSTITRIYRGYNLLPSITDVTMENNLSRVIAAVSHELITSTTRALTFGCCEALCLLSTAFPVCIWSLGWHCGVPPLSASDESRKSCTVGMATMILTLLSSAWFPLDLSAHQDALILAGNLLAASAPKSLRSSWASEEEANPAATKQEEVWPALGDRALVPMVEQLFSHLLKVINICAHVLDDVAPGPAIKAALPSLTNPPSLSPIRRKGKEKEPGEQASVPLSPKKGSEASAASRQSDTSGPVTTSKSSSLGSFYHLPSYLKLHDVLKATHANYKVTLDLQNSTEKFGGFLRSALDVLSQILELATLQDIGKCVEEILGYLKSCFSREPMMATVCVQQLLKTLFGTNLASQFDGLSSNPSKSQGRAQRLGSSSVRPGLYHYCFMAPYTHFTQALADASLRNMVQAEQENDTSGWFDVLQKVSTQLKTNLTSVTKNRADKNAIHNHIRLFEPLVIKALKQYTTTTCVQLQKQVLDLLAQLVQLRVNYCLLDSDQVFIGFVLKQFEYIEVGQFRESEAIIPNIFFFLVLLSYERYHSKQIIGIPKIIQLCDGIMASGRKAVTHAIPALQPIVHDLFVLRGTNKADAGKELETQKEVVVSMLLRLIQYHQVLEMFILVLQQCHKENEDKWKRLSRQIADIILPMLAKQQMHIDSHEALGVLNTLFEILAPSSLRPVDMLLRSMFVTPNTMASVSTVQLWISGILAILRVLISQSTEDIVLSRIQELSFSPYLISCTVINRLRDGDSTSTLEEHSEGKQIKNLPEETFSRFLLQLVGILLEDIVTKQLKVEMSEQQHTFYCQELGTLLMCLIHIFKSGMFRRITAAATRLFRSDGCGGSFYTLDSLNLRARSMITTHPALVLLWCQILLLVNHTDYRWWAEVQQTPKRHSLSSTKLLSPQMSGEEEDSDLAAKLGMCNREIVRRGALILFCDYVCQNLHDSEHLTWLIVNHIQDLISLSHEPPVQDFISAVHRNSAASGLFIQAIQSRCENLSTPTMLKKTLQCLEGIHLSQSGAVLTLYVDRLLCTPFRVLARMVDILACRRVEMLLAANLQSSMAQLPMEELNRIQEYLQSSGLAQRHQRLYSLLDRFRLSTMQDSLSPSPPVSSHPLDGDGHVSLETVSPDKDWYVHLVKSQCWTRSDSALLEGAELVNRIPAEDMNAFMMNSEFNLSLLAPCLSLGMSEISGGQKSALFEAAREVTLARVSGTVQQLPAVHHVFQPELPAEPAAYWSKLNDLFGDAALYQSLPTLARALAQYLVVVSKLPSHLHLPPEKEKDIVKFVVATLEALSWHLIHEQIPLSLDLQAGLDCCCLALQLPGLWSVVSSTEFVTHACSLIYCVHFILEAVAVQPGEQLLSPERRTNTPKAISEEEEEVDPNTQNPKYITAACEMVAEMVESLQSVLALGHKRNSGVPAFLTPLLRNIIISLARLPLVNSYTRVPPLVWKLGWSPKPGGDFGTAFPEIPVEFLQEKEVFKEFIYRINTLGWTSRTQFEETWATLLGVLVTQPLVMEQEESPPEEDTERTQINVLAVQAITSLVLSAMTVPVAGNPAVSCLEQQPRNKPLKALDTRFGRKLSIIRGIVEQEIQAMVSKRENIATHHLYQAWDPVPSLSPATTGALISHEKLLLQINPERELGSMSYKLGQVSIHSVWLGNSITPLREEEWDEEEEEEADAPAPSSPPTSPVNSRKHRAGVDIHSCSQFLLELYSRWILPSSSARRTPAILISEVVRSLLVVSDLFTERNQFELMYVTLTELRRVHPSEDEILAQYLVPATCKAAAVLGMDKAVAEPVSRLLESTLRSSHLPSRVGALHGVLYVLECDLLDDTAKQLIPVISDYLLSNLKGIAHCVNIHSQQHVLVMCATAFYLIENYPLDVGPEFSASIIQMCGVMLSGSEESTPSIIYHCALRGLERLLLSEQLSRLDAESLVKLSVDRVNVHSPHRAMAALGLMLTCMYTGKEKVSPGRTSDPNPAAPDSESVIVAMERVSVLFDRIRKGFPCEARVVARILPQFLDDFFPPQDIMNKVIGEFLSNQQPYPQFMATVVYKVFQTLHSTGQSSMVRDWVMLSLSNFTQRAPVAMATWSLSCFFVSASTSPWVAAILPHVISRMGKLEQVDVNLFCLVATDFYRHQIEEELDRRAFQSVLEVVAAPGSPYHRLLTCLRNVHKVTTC
T1 sequence (P23610 whole entry, stated change not applied): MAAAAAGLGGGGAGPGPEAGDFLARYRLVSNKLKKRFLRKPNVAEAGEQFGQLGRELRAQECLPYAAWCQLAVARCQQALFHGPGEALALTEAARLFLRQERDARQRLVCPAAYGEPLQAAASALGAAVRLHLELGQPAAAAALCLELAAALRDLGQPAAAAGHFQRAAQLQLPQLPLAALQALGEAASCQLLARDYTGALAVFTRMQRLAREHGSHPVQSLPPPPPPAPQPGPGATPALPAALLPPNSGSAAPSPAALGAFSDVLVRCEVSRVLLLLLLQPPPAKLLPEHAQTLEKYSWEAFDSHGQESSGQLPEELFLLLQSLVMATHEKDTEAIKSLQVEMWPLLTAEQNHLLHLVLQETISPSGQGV

With `Cn1ncc2ccc(CNc3ccccc3[C@H]3CC3(F)F)cc21` (single isomer, unassigned; peak 2) [compound 1, Peak 2 of AS-MS Hit 1], the Kd at HTTQ23-HAP40 (HTT-HAP40) [1] is 4 ± 2 µM.

As for `Cn1ncc2ccc(CNc3ccccc3C3CC3(F)F)cc21` (racemic) [compound 1, AS-MS Hit 1], the values for the Kd at HTTQ54-HAP40 and on HTTQ23-HAP40 (HTT-HAP40) [1] were 4 ± 1 µM and 5 ± 2 µM, respectively.

`Cn1ncc2ccc(CNc3ccccc3C3CC(F)(F)C3)cc21` [compound 3, 3] showed a Kd at HTTQ23-HAP40 (HTT-HAP40) [2] of 3.5 ± 1 µM.

Consider `Cc1nn(C)c2cc(CNc3ccccc3C3CCC(F)(F)C3)ccc12` (centres unmarked) [compound 21, 21], for which the KD entry at HTTQ23-HAP40 (HTT-HAP40) [3] is given as “These modifications were well-tolerated but did not improve affinity”.
